We go through 26 compounds from patent US20200181104A1, “SSAO INHIBITORS AND USES THEREOF” (METACRINE, INC., priority 2018, published 2020).

In the experiment the target is T1, Recombinant Human SSAO/VAP-1/AOC3 (Homo sapiens, UniProt Q16853).
T1 construct: purchased R&D systems 3957-AO
T1 sequence (Q16853 1-763): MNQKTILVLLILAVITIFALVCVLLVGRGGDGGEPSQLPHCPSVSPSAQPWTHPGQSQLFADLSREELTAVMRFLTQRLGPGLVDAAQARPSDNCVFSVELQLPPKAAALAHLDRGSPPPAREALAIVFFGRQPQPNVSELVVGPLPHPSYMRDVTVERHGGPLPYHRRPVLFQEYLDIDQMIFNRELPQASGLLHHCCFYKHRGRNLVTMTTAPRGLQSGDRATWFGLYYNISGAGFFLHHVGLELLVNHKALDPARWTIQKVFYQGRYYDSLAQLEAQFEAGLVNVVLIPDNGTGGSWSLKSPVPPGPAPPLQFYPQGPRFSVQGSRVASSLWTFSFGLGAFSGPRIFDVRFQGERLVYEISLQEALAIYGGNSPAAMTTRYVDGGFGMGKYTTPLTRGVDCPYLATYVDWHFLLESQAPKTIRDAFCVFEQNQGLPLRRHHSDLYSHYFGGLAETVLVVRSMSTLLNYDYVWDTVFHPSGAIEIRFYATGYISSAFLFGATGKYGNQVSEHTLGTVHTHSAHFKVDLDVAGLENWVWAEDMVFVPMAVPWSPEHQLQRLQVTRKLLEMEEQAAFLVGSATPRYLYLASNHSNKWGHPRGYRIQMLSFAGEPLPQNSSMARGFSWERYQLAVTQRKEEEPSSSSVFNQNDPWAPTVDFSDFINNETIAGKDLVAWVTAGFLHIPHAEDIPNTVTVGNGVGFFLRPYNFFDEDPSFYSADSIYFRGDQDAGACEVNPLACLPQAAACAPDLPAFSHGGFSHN
Kind of experiment: Human Semicarbazide-Sensitive Amine Oxidase (SSAO) Assay. It is filed as biochemical. As to conditions: recombinant enzyme, 30 minutes preincubation at 37° C., benzylamine substrate, Amplex Ultra Red/HRP fluorescence. The procedure, abridged:
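Recombinant human SSAO/VAP-1 (2.5 μg/ml working stock in 50 mM HEPES) preincubated with compound 30 min at 37 °C over a 6-10 point CRC. Benzylamine substrate starts the reaction. H2O2 read kinetically over 30-120 min via Amplex Ultra Red/HRP fluorescence (ex 544/em 590 nm) to derive IC50.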

The term IC50 denotes the concentration that gives 50% inhibition. In the case of `NC/C(=C\F)COc1ccc(C23CCC(C(=O)N4CC(O)C4)(CC2)CC3)cc1` [Compound 2.29, (E)-(4-(4-((2-(aminomethyl)-3-fluoroallyl)oxy)phenyl)bicyclo [2.2.2]octan-1-yl)(3-hydroxyazetidin-1-yl)methanone], the IC50 is ≤ 10 nM.
With `NC/C(=C\F)COc1ccc(C23CCC(C(=O)NC4(C5CCOCC5)CC4)(CC2)CC3)cc1` [Compound 2.41, (E)-4-(4-((2-(aminomethyl)-3-fluoroallyl)oxy)phenyl)-N-(1-(tetrahydro-2H-pyran-4-yl)cyclopropyl)bicyclo[2.2.2] octane-1-carboxamide] the figure was ≤ 10 nM; with `CC(C)(C#N)CNC(=O)C12CCC(c3ccc(OC/C(=C/F)CN)cc3)(CC1)CC2` [Compound 2.103, (E)-4-(4-((2-(aminomethyl)-3-fluoroallyl)oxy)phenyl)-N-(2-cyano-2-methylpropyl)bicyclo[2.2.2] octane-1-carboxamide], ≤ 10 nM.
As for `C[C@H](NC(=O)C12CCC(c3ccc(OC/C(=C/F)CN)cc3)(CC1)CC2)C1CCOCC1` [Compound 2.27, (S,E)-4-(4-((2-(aminomethyl)-3-fluoroallyl)oxy)phenyl)-N-(1-(tetrahydro-2H-pyran-4-yl)ethyl)bicyclo[2.2.2]octane-1-carboxamide], the figure is ≤ 10 nM.
As for `CC(C)N(CCO)C(=O)C12CCC(c3ccc(OC/C(=C/F)CN)cc3)(CC1)CC2` [Compound 2.38, (E)-4-(4-((2-(aminomethyl)-3-fluoroallyl)oxy)phenyl)-N-(2-hydroxyethyl)-N-isopropylbicyclo[2.2.2]octane-1-carboxamide], the figure is ≤ 10 nM; as for `CC1(NC(=O)C23CCC(c4ccc(OC/C(=C/F)CN)cc4)(CC2)CC3)CCOCC1` [Compound 2.18, (E)-4-(4-((2-(amino-methyl)-3-fluoroallyl)oxy)phenyl)-N-(4-methyltetrahydro-2H-pyran-4-yl)bicyclo [2.2.2]octane-1-carboxamide], ≤ 10 nM; as for `CC(C)(NC(=O)C12CCC(c3ccc(OC/C(=C/F)CN)cc3)(CC1)CC2)C1CCOCC1` [Compound 2.108, (E)-4-(4-((2-(aminomethyl)-3-fluoroallyl)oxy)phenyl)-N-(2-(tetrahydro-2H-pyran-4-yl)propan-2-yl)bicyclo[2.2.2]octane-1-carboxamide], ≤ 10 nM.
`NC/C(=C\F)COc1ccc(C23CCC(C(=O)N4CC(CO)C4)(CC2)CC3)cc1` [Compound 2.43, (E)-(4-(4-((2-(aminomethyl)-3-fluoroallyl)oxy)phenyl)bicyclo [2.2.2]octan-1-yl)(3-(hydroxymethyl)azetidin-1-yl)methanone]: the IC50 is ≤ 10 nM.
As for `COC[C@H]1C[C@H](NC(=O)C23CCC(c4ccc(OC/C(=C/F)CN)cc4)(CC2)CC3)C1` [Compound 2.126, 4-(4-(((E)-2-(aminomethyl)-3-fluoroallyl)oxy)phenyl)-N-((1r,3r)-3-(methoxymethyl)cyclobutyl) bicyclo[2.2.2]octane-1-carboxamide], the figure is ≤ 10 nM; as for `COCCC(=O)NC12CCC(c3ccc(OC/C(=C/F)CN)cc3)(CC1)CC2` [Compound 7.02, (E)-N-(4-(4-((2-(aminomethyl)-3-fluoroallyl)oxy)phenyl)bicyclo [2.2.2]octan-1-yl)-3-methoxypropanamide], ≤ 10 nM.
As for `COC(C)(C)CCNC(=O)C12CCC(c3ccc(OC/C(=C/F)CN)cc3)(CC1)CC2` [Compound 2.138, (E)-4-(4-((2-(aminomethyl)-3-fluoroallyl)oxy)phenyl)-N-(3-methoxy-3-methylbutyl)bicyclo[2.2.2] octane-1-carboxamide], the figure is ≤ 10 nM; as for `NC/C(=C\F)COc1ccc(C23CCC(C(=O)NC4[C@H]5COC[C@H]45)(CC2)CC3)cc1` (stereo in doubt) [Compound 2.70, 4-(4-(((E)-2-(aminomethyl)-3-fluoroallyl)oxy)phenyl)-N-((1R,5S,6r)-3-oxabicyclo[3.1.0]hexan-6-yl)bicyclo[2.2.2]octane-1-carboxamide], ≤ 10 nM.
Take `COC1(CNC(=O)C23CCC(c4ccc(OC/C(=C/F)CN)cc4)(CC2)CC3)CC1` [Compound 2.144, (E)-4-(4-((2-(aminomethyl)-3-fluoroallyl)oxy)phenyl)-N-((1-methoxycyclopropyl)methyl) bicyclo[2.2.2]octane-1-carboxamide]: the IC50 is ≤ 10 nM.
With `NC/C(=C\F)COc1ccc(C23CCC(C(=O)NCc4cnccn4)(CC2)CC3)cc1` [Compound 2.129, (E)-4-(4-((2-(aminomethyl)-3-fluoroallyl)oxy)phenyl)-N-(pyrazin-2-ylmethyl)bicyclo[2.2.2]octane-1-carboxamide] the figure was ≤ 10 nM.
With `Cc1cnc(CNC(=O)C23CCC(c4ccc(OC/C(=C/F)CN)cc4)(CC2)CC3)cn1` [Compound 2.158, (E)-4-(4-((2-(aminomethyl)-3-fluoroallyl)oxy)phenyl)-N-((5-methylpyrazin-2-yl)methyl)bicyclo[2.2.2]octane-1-carboxamide] the figure was ≤ 10 nM; with `NC/C(=C\F)COc1ccc(C23CCC(C(=O)NCC4(O)CCCC4)(CC2)CC3)cc1` [Compound 2.100, (E)-4-(4-((2-(aminomethyl)-3-fluoroallyl)oxy)phenyl)-N-((1-hydroxycyclopentyl)methyl) bicyclo[2.2.2]octane-1-carboxamide], ≤ 10 nM; with `C[C@H]1COCCN1C(=O)C12CCC(c3ccc(OC/C(=C/F)CN)cc3)(CC1)CC2` [Compound 2.22, (S,E)-(4-(4-((2-(aminomethyl)-3-fluoroallyl)oxy)phenyl)bicyclo[2.2.2]octan-1-yl)(3-methylmorpholino) methanone], ≤ 10 nM.
Consider `NC/C(=C\F)COc1ccc(C23CCC(C(=O)N4CC(F)(CO)C4)(CC2)CC3)cc1` [Compound 2.60, (E)-(4-(4-((2-(aminomethyl)-3-fluoroallyl)oxy)phenyl)bicyclo[2.2.2]octan-1-yl)(3-fluoro-3-(hydroxymethyl)azetidin-1-yl)methanone], for which the IC50 is ≤ 10 nM.
As for `CC(=O)N1CCN(C(=O)C23CCC(c4ccc(OC/C(=C/F)CN)cc4)(CC2)CC3)CC1` [Compound 2.31, (E)-1-(4-(4-(4-((2-(aminomethyl)-3-fluoroallyl)oxy)phenyl)bicyclo [2.2.2]octane-1-carbonyl)piperazin-1-yl)ethanone], the figure is ≤ 10 nM; as for `NC/C(=C\F)COc1ccc(C23CCC(C(=O)O)(CC2)CC3)cc1` [Compound 2.05, (E)-4-(4-((2-(amino-methyl)-3-fluoroallyl)oxy)phenyl) bicyclo[2.2.2]octane-1-carboxylic acid], 10 to 100 nM; as for `CC(C)(CO)NC(=O)C12CCC(c3ccc(OC/C(=C/F)CN)cc3)(CC1)CC2` [Compound 2.34, (E)-4-(4-((2-(aminomethyl)-3-fluoroallyl)oxy)phenyl)-N-(1-hydroxy-2-methylpropan-2-yl)bicyclo[2.2.2]octane-1-carboxamide], ≤ 10 nM.
On to `COCC1CN(C(=O)C23CCC(c4ccc(OC/C(=C/F)CN)cc4)(CC2)CC3)C1` [Compound 2.55, (E)-(4-(4-((2-(aminomethyl)-3-fluoroallyl)oxy)phenyl)bicyclo [2.2.2]octan-1-yl)(3-(methoxymethyl)azetidin-1-yl)methanone], for which the IC50 was ≤ 10 nM.
Consider `COCC1(NC(=O)C23CCC(c4ccc(OC/C(=C/F)CN)cc4)(CC2)CC3)CCOCC1` [Compound 2.86, (E)-4-(4-((2-(aminomethyl)-3-fluoroallyl)oxy)phenyl)-N-(4-(methoxymethyl)tetrahydro-2H-pyran-4-yl)bicyclo[2.2.2]octane-1-carboxamide], for which the IC50 is ≤ 10 nM.
With `CO[C@@H](C)CNC(=O)C12CCC(c3ccc(OC/C(=C/F)CN)cc3)(CC1)CC2` [Compound 2.125, (S,E)-4-(4-((2-(aminomethyl)-3-3-fluoroallyl)oxy)phenyl)-N-(2-methoxypropyl)bicyclo[2.2.2] octane-1-carboxamide] the figure was ≤ 10 nM.
Take `CCO[C@H]1C[C@@H](NC(=O)C23CCC(c4ccc(OC/C(=C/F)CN)cc4)(CC2)CC3)C1` [Compound 2.150, 4-(4-(((E)-2-(aminomethyl)-3-fluoroallyl)oxy)phenyl)-N-((1s,3s)-3-ethoxycyclobutyl)bicyclo[2.2.2] octane-1-carboxamide]: the IC50 is ≤ 10 nM.
As for `CC1(NC(=O)C23CCC(c4ccc(OC/C(=C/F)CN)cc4)(CC2)CC3)CCCOC1` (centres unmarked) [Compound 2.65, (E)-4-(4-((2-(aminomethyl)-3-fluoroallyl)oxy)phenyl)-N-(3-methyltetrahydro-2H-pyran-3-yl)bicyclo[2.2.2]octane-1-carboxamide], the figure is ≤ 10 nM.
